This note sets out measurements from US11311541B2 (priority 2014, dated 2022).

The target in one data set is ROCK1 (Homo sapiens (Human), UniProt Q13464). In kind it is biochemical.
Data set [1] addresses T1, ROCK2 (Homo sapiens (Human), UniProt O75116). The settings on record: read-out: ROCK2 IC50.
Description: (§2) Dose response curves for Rho-kinase inhibition were derived from a Invitrogen Z′-LYTE™ Kinase Assay Kit (Invitrogen catalog number PV3793). Purified active ROCK1 and ROCK2 were obtained from Invitrogen (catalog numbers ROCK1, PV3691 and ROCK2, PV3759). The kit components include a coumarin and fluorescein labeled peptide based on myosin light chain 2 ([sequence]), a proprietary protease containing development reagent and a proprietary Stop buffer used to terminate the development reaction. The inhibitory activities of compounds are measured according to the manufactures protocol. […] This mixture is overlayed into a white 96-well half area plate and the reaction is initiated with the addition of 5 uM ATP for ROCK1 or 12 uM ATP for ROCK2. The assay proceeds at room temperature for 1 hour followed by the addition of development reagent, and further incubation for 1 hour at room temperature. STOP reagent is then added and the reaction and immediately the coumarin and fluorescein emission signals are read on a Tecan Infinite M1000 fluorescence plate reader (excitation: 400 nm; emission 445 and 520 nm, respectively). By comparing the emission ratios of the test samples against control samples, percent phosphorylation values are calculated and the concentration of inhibitor that produces ½ inhibition of kinase activity (IC50) is determined using Prism.
The next data set relates to cytokine secretion. Nature of the data set: cytokine secretion, FIG. 10. The data set is classed as cell-based.
The target in data set [2] is T1, ROCK2. Nature of the data set: biochemical.
Description: as §2
Data set [3] deals with murine model of chronic GVHD. Nature of the data set: murine model of chronic GVHD, lung pathology.
Description: On day −1, recipients received total-body irradiation (TBI) by X-ray (8.5 Gy). Donor bone marrow (BM) was T-cell depleted with anti-Thy 1.2 mAb followed by rabbit complement. On day 0, recipients received 10^7 BM cells with or without allogeneic splenocytes (10^6 cells). Weights of individual mice were recorded twice weekly. […] The analysis of pulmonary function was performed on day 28 (before the treatment) and on day 56. Anesthetized mice were weighed, and lung function was assessed by wholebody plethysmography with the Flexivent system (SCIREQ) and analyzed with Flexivent Version 5.1 software. Survival data were analyzed by life-table methods, and actuarial survival rates are shown. Group comparisons were made by log-rank test.
Lungs were inflated by infusion of 1 mL of optimal cutting temperature compound:PBS (3:1) intratracheally prior to harvest. Six-micrometer cryosections were fixed for 5 minutes in acetone and stained with mMasson's trichrome staining kit (Sigma-Aldrich) for detection of collagen deposition. Collagen deposition was quantified on trichrome-stained sections as a ratio of area of blue staining to area of total staining by use of the Adobe mPhotoshop CS3 analysis tool (Adobe Systems). For measuring Ig deposition, acetone-fixed 6-m lung cryosections were blocked with horse serum and streptavidin-biotin blocking kit (Vector) and stained with fluorescein isothiocyanate (FITC)-labeled anti-mouse-Ig (BD Pharmingen). Antibody deposition was quantified by area of Ig staining per 100-μm section.
Mice were treated as described above, except that twelve animals per group were tested. […] (n=3/group). Spleens were also collected for analysis on day 56. […] Pulmonary function tests and analysis of body weight were performed as described above.
Data set [4] relates to CD4+ human T cells. As to the kind of experiment: cytokine secretion of anti-CD3/CD28 stimulated CD4+ T cells in vitro. In kind it is cell-based. To be noted: anti-CD3/CD28 stimulation. An excerpt:
(§1) Activation of resting T cells, resulting in cytokine secretion and proliferation, involves two distinct signals from antigen-presenting cells (APCs), mimicked by co-stimulation of the T cell receptor (TCR)/CD3 complex and the CD28 receptor.

The next data set relates to CD4+CD25+ human Tregs. Nature of the data set: Treg inhibition of IL-17 secretion in CD4+CD25- T cells. In kind it is cell-based. The settings on record: Tregs treated 3 hours; Treg:Teff 1:4 and 1:9.
In data set [5] the test system is sclerodermatous cGVHD mouse model. Nature of the data set: sclerodermatous cGVHD mouse model (B10.D2 into BALB/c). The data set is classed as in vivo. An excerpt:
In this model, BALB/c (H-2^d) mice received 775 cGy of total body radiation on day 0 and were transplanted with bone marrow and T-cells from B10.D2 (H-2^d) mice. […] The GVHD score in this model combined changes in weight lost, posture, activity, fur texture, and skin integrity (FIG. 26). Sclerodermatous cGVHD mice were further analyzed as depicted in FIGS. 27-35.

The test system of a further data set is STAT3 phosphorylation. Nature of the data set: STAT3 phosphorylation in T cells. The data set is classed as cell-based, human. As to the method:
STAT3 plays a critical role in Th17 differentiation via regulation of RORγt expression and direct binding to the IL-17 and IL-21 promoters. […] In a different experiment, cells were cultured under Th17-skewing conditions for 5 days and then treated with the ROCK2 selective inhibitor for 3 hours.

Data set [6] concerns CD4+ human T cells. As to the kind of experiment: T cell proliferation in response to TCR stimulation in vitro. In kind it is cell-based.
Description: as §1

Data set [7] deals with murine model of chronic GVHD. Nature of the data set: germinal centers and Tfh cells in spleen, murine model of chronic GVHD. To be noted: 150 mg/kg. In kind it is in vivo, mouse. As to the method: Fixed 6-μm spleen cryosections of mice were stained with rhodamine-conjugated peanut agglutinin (PNA; Vector Laboratories), and the size of the PNA-positive sections was measured and defined as germinal centers. For flow cytometric analysis of Tfh cells and GC B cells, single-cell suspensions from spleens were obtained and labeled with anti-CD4, anti-CXCR5, and anti-PD1 antibodies (eBioscience). Cells were analyzed on a BD LSRFortessa cell analyzer.

The subject of data set [8] is TGF-β-induced STAT3, MLC and SMAD2/3 phosphorylation. Nature of the data set: TGF-β-induced phosphorylation in Tregs. In kind it is cell-based. An excerpt: (FIG. 16). TGF-3 is involved in development and function of both Th17 and Treg subsets of T cells. However, when Tregs are regulated in Smad2/3-dependent signaling mechanism, TGF-β regulates Th17 cells in Smad2/3 independent manner that is considered as non-canonical TGF-β-induced signaling.

A short description of data set [9]: plasma KD025 concentration in murine chronic GVHD. The data set is classed as in vivo, mouse. To be noted: day 56, 1-hr pre-dose and 1-hr post-dose.
Description: Mice were treated as described above, except that twelve animals per group were tested. […] (n=3/group).
Another data set deals with human CD4+ T cells. As to the kind of experiment: Foxp3+ cells among CD4+ T cells. The settings on record: 5 days of Th17 skewing activation. The data set is classed as cell-based. From the text: Foxp3 is a lineage-specific transcription factor for Tregs and is crucial to the development and inhibitory function of these cells. STAT5 signaling positively regulates the induction and stabilization of Foxp3 expression in T cells in vitro and in vivo. […] (FIG. 14).

Data set [10] deals with STAT3/STAT5 phosphorylation, RORγt, IRF4, Bcl6 in spleens. Nature of the data set: Western blot of spleen cells, murine model of cGVHD. The data set is classed as in vivo, mouse. The settings on record: treatment days 28-56.
Description: Mice were treated as described above, except that twelve animals per group were tested. […] (n=3/group). Spleens were also collected for analysis on day 56. […] Single cell suspensions were prepared from the isolated spleens. Cells were lysed in RIPA buffer and analyzed for protein content. Sample buffer was then added, and, after boiling, the samples, containing equal amounts of proteins, were separated by SDS-PAGE gel electrophoresis and transferred to a nitrocellulose membrane. Membranes were blocked and probed with specific antibodies overnight. Actin was used as a loading control. Anti-pSTAT3 pSTAT5 and Bcl6 antibodies were purchased from Cell Signaling Technologies (Beverly, Mass.). Anti-IRF4 (sc-48338) and anti-RORγt (14-6988) were obtained from Santa Cruz Biotechnology Inc. and eBioscience respectively. Immunoreactive protein bands were visualized using an HRP-conjugated secondary antibodies and an enhanced ECL system.
For data set [11], the system named is CD4+ T cells from RA patients. As to the kind of experiment: cytokine secretion ex vivo in CD4+ T cells from RA patients. The data set is classed as cell-based, human. An excerpt: Among RA patients, inhibition of IFN-γ production was correlated with disease activity score (DAS). (FIG. 12B).
Data set [12] relates to PBMCs of treated patients. As to the kind of experiment: ex vivo stimulation of cytokine production in PBMCs isolated from treated patients. Also noted: species or system human. The settings on record: 120 mg/day, days 1 and 8-14; anti-CD3/CD28 72 hours. The method, then:
Peripheral blood mononuclear cells (PBMCs) were collected at the start and end of the trial and stimulated by plating on immobilized anti-CD3/CD28 antibodies for 72 hours, and levels of IL-17, IL-21, and IFN-γ were measured. […] No effect on IFN-γ was observed.

Where [13] appears, read: Table 3 (Example 203, method not given).
Where [14] appears, read: day 98, 42 days after last administration.
Setting [15] is: 2 RA patients, intracellular staining.
Where [16] appears, read: RA patients, anti-CD3/CD28, ex vivo.

Each structure is given as a SMILES string. “Also recorded” adds a separate entry of the source. Where two headings read alike, the source gives them in different places.

T1 sequence (O75116 1-552): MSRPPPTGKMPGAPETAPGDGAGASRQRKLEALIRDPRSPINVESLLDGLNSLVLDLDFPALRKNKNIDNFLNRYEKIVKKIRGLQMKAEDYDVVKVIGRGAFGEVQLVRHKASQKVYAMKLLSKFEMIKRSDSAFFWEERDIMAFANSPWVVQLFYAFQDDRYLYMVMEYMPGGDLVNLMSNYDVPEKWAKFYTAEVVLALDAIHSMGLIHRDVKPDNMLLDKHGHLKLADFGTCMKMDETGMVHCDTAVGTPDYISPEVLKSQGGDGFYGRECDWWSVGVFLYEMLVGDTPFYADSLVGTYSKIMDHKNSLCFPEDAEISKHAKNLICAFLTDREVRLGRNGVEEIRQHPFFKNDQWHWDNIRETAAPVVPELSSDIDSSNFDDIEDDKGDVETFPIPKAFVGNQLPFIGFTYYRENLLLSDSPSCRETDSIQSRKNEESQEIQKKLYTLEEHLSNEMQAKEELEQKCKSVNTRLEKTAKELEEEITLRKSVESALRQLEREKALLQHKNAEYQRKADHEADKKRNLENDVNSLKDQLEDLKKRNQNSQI
Sequence of ROCK1 (Q13464 1-535): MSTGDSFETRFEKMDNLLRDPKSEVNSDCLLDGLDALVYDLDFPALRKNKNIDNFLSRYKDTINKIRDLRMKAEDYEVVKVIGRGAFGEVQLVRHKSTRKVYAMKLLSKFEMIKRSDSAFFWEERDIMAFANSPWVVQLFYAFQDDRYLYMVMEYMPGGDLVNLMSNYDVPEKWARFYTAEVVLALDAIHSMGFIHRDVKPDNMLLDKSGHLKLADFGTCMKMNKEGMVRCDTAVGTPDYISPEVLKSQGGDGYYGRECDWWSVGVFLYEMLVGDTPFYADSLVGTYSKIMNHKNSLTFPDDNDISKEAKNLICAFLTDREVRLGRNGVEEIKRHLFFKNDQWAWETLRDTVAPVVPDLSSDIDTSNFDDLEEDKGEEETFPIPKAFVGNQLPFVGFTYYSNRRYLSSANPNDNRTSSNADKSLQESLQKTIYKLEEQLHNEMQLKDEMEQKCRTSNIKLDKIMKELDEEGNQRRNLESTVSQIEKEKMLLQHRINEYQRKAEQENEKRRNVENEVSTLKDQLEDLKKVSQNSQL
Description for ROCK1: as §2

Broadly, the IC50 is the concentration that gives 50% inhibition. With `CC(N)c1cccc(-c2nccc(Nc3ccc4[nH]ncc4c3)n2)c1` (stereo not drawn) [Example 147, N-(2-(3-(1-aminoethyl)phenyl)pyrimidin-4-yl)-1H-indazol-5-amine], the IC50 on ROCK1 (Table 2, 5 uM ATP) was greater than 2 µM; on ROCK2 [1] (Table 2, 12 uM ATP), greater than 5.5 µM.

In the case of `CC(C)NC(=O)COc1cccc(-c2nc(Nc3ccc4[nH]ncc4c3)cc(C(F)(F)F)n2)c1` [Example 169], the IC50 is greater than 10 µM against ROCK1 (Table 2, 5 uM ATP) and greater than 10 µM at ROCK2 [1] (Table 2, 12 uM ATP).

`COc1ccc2c(c1)CN(c1nccc(Nc3ccc4[nH]ncc4c3)n1)C2` [Example 181, N-(2-(5-methoxyisoindolin-2-yl)pyrimidin-4-yl)-1H-indazol-5-amine]: the “secretion of IL-21” value in the data set on cytokine secretion (FIG. 10 Panel A) is reported as “inhibits”. The “inhibition of IL-17 secretion” value in the data set with cytokine secretion (FIG. 10 Panel B) is on record as “dose-dependent”.

For `c1ccc2c(c1)CN(c1nccc(Nc3ccc4[nH]ncc4c3)n1)C2` [Example 182, N-(2-(isoindolin-2-yl)pyrimidin-4-yl)-1H-indazol-5-amine], the IC50 on ROCK1 (setting [13]) is greater than 10 µM.

`COc1ccc2c(c1)CN(c1ccnc(Nc3ccc4[nH]ncc4c3)n1)C2` [Example 188, N-(4-(5-methoxyisoindolin-2-yl)pyrimidin-2-yl)-1H-indazol-5-amine] displayed an IC50 against ROCK1 (setting [13]) greater than 10 µM.

On ROCK1 (setting [13]), `Clc1ccc2c(c1)CN(c1nccc(Nc3ccc4[nH]ncc4c3)n1)C2` [Example 190, N-(2-(5-chloroisoindolin-2-yl)pyrimidin-4-yl)-1H-indazol-5-amine] returned an IC50 greater than 10 µM.

The molecule `COc1ccc2c(c1)CCN(c1nccc(Nc3ccc4[nH]ncc4c3)n1)C2` [Example 191, N-(2-(6-methoxy-3,4-dihydroisoquinolin-2(1H)-yl)pyrimidin-4-yl)-1H-indazol-5-amine] showed an IC50 against ROCK1 (setting [13]) greater than 10 µM.

As for `c1cc(Nc2ccc3[nH]ncc3c2)nc(N2CCc3sccc3C2)n1` [Example 192, N-(2-(6,7-dihydrothieno[3,2-c]pyridin-5(4H)-yl)pyrimidin-4-yl)-1H-indazol-5-amine], on ROCK1 (setting [13]), the IC50 is greater than 10 µM.

`COc1ccc2c(c1)CN(c1cc(Nc3ccc4[nH]ncc4c3)ncn1)C2` [Example 193, N-(6-(5-methoxyisoindolin-2-yl)pyrimidin-4-yl)-1H-indazol-5-amine] had an IC50 against ROCK1 (setting [13]) greater than 10 µM.

For the molecule `COc1ccc2c(c1)CN(c1cc(Nc3ccc4[nH]ncc4c3)nc(C)n1)C2` [Example 194, N-(6-(5-methoxyisoindolin-2-yl)-2-methylpyrimidin-4-yl)-1H-indazol-5-amine], the IC50 at ROCK2 [2] was 0.13 to 0.18 µM; on ROCK1 (setting [13]) it was greater than 10 µM.

`c1cc2c(cn1)CN(c1nccc(Nc3ccc4[nH]ncc4c3)n1)C2` [Example 195, N-(2-(1H-pyrrolo[3,4-c]pyridin-2(3H)-yl)pyrimidin-4-yl)-1H-indazol-5-amine]: the IC50 on ROCK1 (setting [13]) is greater than 10 µM.

As to `COc1ccc2c(c1)CN(c1nc(C)c(C)c(Nc3ccc4[nH]ncc4c3)n1)C2` [Example 196, N-(2-(5-methoxyisoindolin-2-yl)-5,6-dimethylpyrimidin-4-yl)-1H-indazol-5-amine], the IC50 on ROCK2 [1] (setting [13]) was greater than 0.01 µM.

On to `COc1ccc2c(c1)CN(c1nccc(Nc3ccc(-c4ccncc4)cc3)n1)C2` [Example 200, 2-(5-methoxyisoindolin-2-yl)-N-(4-(pyridin-4-yl)phenyl)pyrimidin-4-amine], for which the half-inhibitory concentration (IC50) on ROCK1 (setting [13]) is greater than 10 µM.

In the case of `CC(C)NC(=O)COc1cccc(-c2nc(Nc3ccc4[nH]ncc4c3)c3ccccc3n2)c1` [KD025], the “pulmonary function (resistance, elastance, compliance)” value in data set [3] (100 mg/kg i.p. daily from day 28, tested day 56) is “significantly improved and normalized pulmonary function”. In data set [3] (150 mg/kg), the “antibody deposition in lungs” value is on record as “essentially indistinguishable from samples from uninduced mice” and the “collagen deposition in lungs” value is on record as “essentially indistinguishable from samples from uninduced mice”. For the same molecule, the “effect on cGVHD lung pathology, dose dependence” value in data set [3] (30, 100, 150 mg/kg) was “dose dependent”. The body weight entry in [3] (Example 216, FIG. 23) was “no effect”. Also, the survival rates result in data set [3] (FIG. 18) is “no effect”. Further, the body weight entry in [3] (FIG. 18, 19) was “no effect”. Besides, in data set [3] (setting [14]), the lung resistance result was “dose-dependent decrease” and the respiratory function entry is “long-lasting improvement; also recorded: Partial improvement”. Besides, in the data set with CD4+ human T cells [4], the IFN-γ secretion entry was “less robust and significant only at high dose (10 μM)”; the IL-2 secretion result is listed as “observed only at the highest concentration (10 μM)”; the IL-17 secretion entry is listed as “significantly inhibited”; the IL-21 secretion result was “significantly inhibited”. In addition, the “ability of Tregs to suppress IL-17 secretion in CD4+CD25- effector T cells” value with CD4+CD25+ human Tregs is recorded as “significantly increased”. The “cervical LN T Cell IFNg” value in [5] (FIG. 32) is given as “decreased”. The “development of chronic sclerodermatous cGVHD” value in [5] (i.p. once daily days 19-47) is reported as “blocked the development”. Further, the GVHD score result in data set [5] (i.p. once daily days 19-47, weight lost, posture, activity, fur texture, skin integrity) is listed as “significantly decreased”. Also, the “phosphorylation of IFR4 and RORγT” value in the data set with STAT3 phosphorylation (separate experiment, FIG. 11C) was “reduced phosphorylation”. The “phosphorylation of STAT3” value with STAT3 phosphorylation (two designs: pre-treatment then anti-CD3/CD28, Th17-skewing 5 days then 3 hours treatment) is given as “significantly down-regulates”. Also, the “proliferation in response to TCR stimulation” value in the data set with CD4+ human T cells [6] is “down-regulated their ability to proliferate”. In data set [7], the “numbers of CD4+PD1HiCXCR5 Tfh cells in spleen” value was “reversed” and the “numbers of germinal centers in spleen” value is on record as “reversed”. Also, in [8], the “TGF-β-induced MLC phosphorylation” value was “down-regulates”, the “TGF-β-induced STAT3 phosphorylation” value is reported as “down-regulates” and the “phosphorylation of SMAD2/3” value is reported as “remains intact”. The “plasma KD025 concentrations” value in [9] was “measurable and generally dose dependent”. For the same molecule, the “percentage of Foxp3+ cells” value in the data set on human CD4+ T cells is given as “significantly increased”. Further, in [10], the “STAT3 phosphorylation in spleens” value is on record as “significant reduction”; the “STAT5 phosphorylation in spleens” value was “concurrent increase”; the “protein levels of RORγt, IRF4 and Bcl6 in spleenocytes” value was “dose-dependent decrease”. Besides, in [11] (setting [15]), the “frequency of IFN-γ-producing cells” value is “significantly reduced the frequencies” and the “frequency of IL-17-producing cells” value was “significantly reduced the frequencies”. For the same molecule, in [11] (setting [16]), the IFN-γ secretion result was “significantly down-regulated”, the IL-17 secretion result is on record as “significantly down-regulated” and the IL-21 secretion result is “significantly down-regulated”. In [12], the “induction of IL-17 secretion in PBMCs” value is listed as “significantly inhibited in PBMCs isolated from four of five patients” and the “induction of IL-21 secretion in PBMCs” value is on record as “significantly inhibited in PBMCs from all five patients”.
